In ChEMBL document CHEMBL1146715, “The discovery and synthesis of novel adenosine substituted 2,3-dihydro-1H-isoindol-1-ones: potent inhibitors of poly(ADP-ribose) polymerase-1 (PARP-1)” (Bioorg Med Chem Lett, 2004):

These compounds were tested against Poly [ADP-ribose] polymerase 1 (Mus musculus) (UniProt P11103) (assay: Percent inhibition of poly(ADP-ribose) polymerase-1 (PARP-1) in mouse using Cell protection assay at 10 uM).
Poly [ADP-ribose] polymerase 1 (Mus musculus), sequence (P11103 whole entry): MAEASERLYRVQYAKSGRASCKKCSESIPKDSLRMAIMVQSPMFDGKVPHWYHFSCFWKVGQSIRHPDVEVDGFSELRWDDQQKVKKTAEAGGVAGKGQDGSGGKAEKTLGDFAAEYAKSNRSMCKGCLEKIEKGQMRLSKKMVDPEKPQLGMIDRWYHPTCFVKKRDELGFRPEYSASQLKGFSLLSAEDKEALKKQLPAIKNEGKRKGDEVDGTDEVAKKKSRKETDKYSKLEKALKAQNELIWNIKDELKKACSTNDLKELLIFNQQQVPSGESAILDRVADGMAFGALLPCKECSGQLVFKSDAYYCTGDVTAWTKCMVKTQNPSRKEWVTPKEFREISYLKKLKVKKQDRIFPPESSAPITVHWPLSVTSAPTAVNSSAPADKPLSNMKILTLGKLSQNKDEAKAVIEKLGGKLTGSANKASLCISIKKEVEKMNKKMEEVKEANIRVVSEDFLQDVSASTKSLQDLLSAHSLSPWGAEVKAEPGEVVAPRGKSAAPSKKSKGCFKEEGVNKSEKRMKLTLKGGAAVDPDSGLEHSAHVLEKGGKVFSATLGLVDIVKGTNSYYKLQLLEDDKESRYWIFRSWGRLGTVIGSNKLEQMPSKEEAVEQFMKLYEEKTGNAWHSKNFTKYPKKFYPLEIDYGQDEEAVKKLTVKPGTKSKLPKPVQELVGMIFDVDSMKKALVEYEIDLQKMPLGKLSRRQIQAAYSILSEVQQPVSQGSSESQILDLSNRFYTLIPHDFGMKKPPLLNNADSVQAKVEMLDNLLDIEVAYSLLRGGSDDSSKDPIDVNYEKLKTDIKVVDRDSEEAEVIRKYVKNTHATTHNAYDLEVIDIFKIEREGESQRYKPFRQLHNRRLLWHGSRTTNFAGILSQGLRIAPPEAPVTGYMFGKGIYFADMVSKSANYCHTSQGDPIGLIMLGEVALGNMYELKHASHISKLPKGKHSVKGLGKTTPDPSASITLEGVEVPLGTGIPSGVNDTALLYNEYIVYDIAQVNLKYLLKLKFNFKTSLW

Row | Compound | inhibition
1 | NC(=O)c1cccc(NC(=O)CCC(=O)NCC2OC(n3cnc4c(N)ncnc43)[C@H](O)[C@@H]2O)c1 (some centres undefined) | 52%
2 | Nc1ncnc2c1ncn2C1O[C@H](CNC(=O)/C=C/c2ccc(C(=O)Nc3cccc4c3CNC4=O)cc2)[C@@H](O)[C@H]1O (some centres undefined) | 51%
3 | O=C1N=Cc2ccccc21 | 33%
4 | O=C(CCCCCCC(=O)Nc1cccc2c1CNC2=O)NC[C@H]1OC(n2cnc3c(O)ncnc32)[C@H](O)[C@@H]1O (some centres undefined) | 30%
